Read-outs that look alike come from different tables or passages of the source.
What was measured:
[1] = Food intake in the male Sprague Dawley rat; format: in vivo; details: PO 1, 2 or 5 mg/kg, 1 hour following administration, relative to placebo
Description: Male Sprague Dawley rats (225-300 g) were housed three per cage in a temperature and humidity controlled environment (12 h:12 h light:dark cycle, lights on at 0600 h). At 1600 h on the day before the test, rats were placed in fresh cages and food was removed. On test day, rats were placed into individual cages with grid floors at 1000 h with no access to food. At 1130 h, rats (n=8) were administered either vehicle (20% hydroxypropyl-β-cyclodextrin) or test compound via oral gavage (PO, 1 mL/kg, with an amount of 1 mg/kg, 2 mg/kg or 5 mg/kg of test compound) 30 min prior to food presentation. Food intake was measured at 60 min after drug administration (30 min after food presentation).

[2] = add on treatment, non-depressed patients with poorly controlled epilepsy; cited from earlier work
[3] = 10 mg BID, type 2 diabetes; cited from earlier work
[4] = patients without diabetes, cited from earlier work
[5] = cited from earlier work
[6] = cited from earlier work; remark: listed apart in the source
[7] = patients with type 2 diabetes, BID
[8] = patients without type 2 diabetes
[9] = pivotal phase 3 program, up to two years

## FC(F)(F)CCc1ccnc2c1CC[C@@H]1CNCCN21 [Compound 152, (R)-4-(3,3,3-trifluoropropyl)-6,6a,7,8,9,10-hexahydro-5H-pyrazino[1,2-a][1,8]naphthyridine]
[1]
  cumulative food intake: significantly decreased

## CN(C)CCCC1(c2ccc(F)cc2)OCc2cc(C#N)ccc21 (stereo not drawn) [citalopram]
[2]
  drop in median seizure frequency: 55.6%

## C[C@H]1CNCCc2ccc(Cl)cc21 [lorcaserin, (R)-8-chloro-1-methyl-2,3,4,5-tetrahydro-1H-3-benzazepine]
[3]
  reduction in HbAlc: 0.9%
[4]; one study
  HOMA-IR change: −0.4
  fasting insulin change: −3.3 μIU/mL
[4]
  mean fasting glucose change: -0.2 mg/dL
[5]; [7]
  patients who decreased total daily dose of medications for dyslipidemia: 5.5%
  patients who increased use of medications for dyslipidemia: 3.1%
[5]; patients with type 2 diabetes
  decrease in mean daily doses of sulfonylureas and thiazolidinediones: 16-24%
  patients who decreased total daily dose of antihypertensive medications: 8.2%
  patients who increased total daily dose of antihypertensive medications: 6.6%
[5]; [8]
  patients who decreased total daily dose of antihypertensive medications: 2.2%
  patients who decreased total daily dose of medications for dyslipidemia: 1.3%
  patients who increased total daily dose of antihypertensive medications: 2.2%
  patients who increased use of medications for dyslipidemia: 2.6%
[6]; phase 3 program
  risk of cardiac valvulopathy: did not increase
[6]; [9]
  patients achieved at least 5% weight loss: About two-thirds
  patients achieved at least 10% weight loss: over one-third
[6]; pivotal phase 3 program
  average weight lost, of their weight: about 8%
[6]; second phase 3 trial
  average weight loss, top quartile of patients: 35 pounds
  average weight loss, top quartile of patients, of body weight: 16%
